# What was measured:
# [1] = molecular target: T1, cyclooxygenase (Mus musculus, UniProt P22437); assay: Cyclooxygenase inhibition: release of 6-keto-PGF1 α from zymosan-stimulated mouse peritoneal macrophage cells; assay type: cell-based; conditions: 10^-5 mol/l, read-out: In vitro % inhibition effect on the release of 6-keto-PGF1 α
# T1 construct: A cell suspension containing peritoneal cells of male mice 8-10 weeks old was obtained; endogenous in cells; host or cells: mouse peritoneal macrophages (male mice 8-10 weeks old), zymosan-stimulated
# T1 sequence (P22437 27-602): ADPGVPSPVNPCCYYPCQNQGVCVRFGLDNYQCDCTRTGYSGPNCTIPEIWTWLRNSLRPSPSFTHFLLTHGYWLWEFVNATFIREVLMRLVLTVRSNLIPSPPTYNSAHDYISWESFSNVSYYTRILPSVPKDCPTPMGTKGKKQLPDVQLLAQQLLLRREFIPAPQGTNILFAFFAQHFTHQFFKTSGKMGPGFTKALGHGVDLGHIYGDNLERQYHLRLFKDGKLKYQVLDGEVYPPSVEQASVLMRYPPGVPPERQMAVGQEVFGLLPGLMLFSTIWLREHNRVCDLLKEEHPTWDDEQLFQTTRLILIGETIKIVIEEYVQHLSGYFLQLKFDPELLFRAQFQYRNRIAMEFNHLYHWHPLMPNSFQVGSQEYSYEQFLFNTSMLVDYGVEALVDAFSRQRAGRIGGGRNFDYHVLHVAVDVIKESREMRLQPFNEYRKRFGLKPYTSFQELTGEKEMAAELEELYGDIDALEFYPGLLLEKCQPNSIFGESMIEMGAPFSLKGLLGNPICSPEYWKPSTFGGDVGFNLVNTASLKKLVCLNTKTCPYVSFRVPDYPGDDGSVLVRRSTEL
# Source text: (§1) 5. In vitro determination of cyclooxygenase inhibition and 5-lipoxygenase inhibition.
# (§2) After activation of the cell, arachidonic acid contained in cell membranes is metabolized in two ways. Leukotrienes, inter alia leukotriene C4, are formed under the action of the enzyme 5-lipoxygenase (5-LO), and prostanoids are formed under the action of the enzyme cyclooxygenase (CO). In in vitro systems, the metabolites are secreted from the cell.
# (§3) To investigate the cyclooxygenase-inhibiting and the 5-lipoxygenase-inhibiting properties, the inhibitory effect of the test substances on the biosynthesis of the arachidonic acid derivatives leukotriene C4 (LTC4) and 6-ketoprostaglandin F1 α (6-keto-PGF1 α) is determined in vitro on mouse peritoneal macrophage cells. This was accomplished by determining the LTC4 and 6-keto-PGF1 α contents in a culture medium of mouse peritoneal macrophage cells by zymosan stimulation as described by Scott et al. (J. Exp. Med. 152 (1980), 324-335) and by Fradin et al. (Prostaglandins, 33 (1987), 579-589).
# (§4) A cell suspension containing peritoneal cells of male mice 8-10 weeks old was obtained in a known manner. A commercially available cell culture solution (RPMI 1640 from Messrs. Gibco) was used to which heparin (I0 international units/ml) and antibiotics were added according to the recipe of Bonney et al. (Biochem. J. 176 (1978) 422-433). The cell suspension was adjusted to a cell concentration of 10^6 cells per ml and distributed uniformly on titer plates containing […] (wells). These were kept for two hours in a humidified incubator filled with air enriched with 7% CO2. Cells not adhering to the titer cell walls were then removed by washing. The remaining macrophage cells adhering to the walls were incubated for about 12 hours in a suspension medium to which 0.1% bovine serum albumin (BSA) were added. The suspension medium was then replaced by a Hanks balanced salt solution (HBSS) containing 10 mM Hepes (hydroxyethyl-piperazinoethanesulfonic acid), to which a 0.1% strength solution of the test substances in aqueous, 1% strength dimethylformamide or only the solvent had been added. After 15 minutes the arachidonic acid metabolism was stimulated by adding 10 particles of zymosan (=glycoproteinmixture, isolated from cell walls of beer yeast, Saccharomyces cerevisiae, manufactured by Sigma Chemical Co., Munich) per titer cell. After 2 hours, samples of each of the supernatant liquids were investigated for their 6-keto-PGF1 α and LTC4 contents by means of an enzyme immunoassay (EIA) carried out by the method of Pradelles et al. (Analytical Chem. 57 (1985), 1170-1173). The determination of LTC4 and the determination of 6-keto-PGF1 α were each carried out in comparison with a comparative scale on suitable dilutions of the samples (1:50 to 1:250 for the LTC4 determination and 1:250 to 1:1250 for the 6-keto-PGF1 α determination). To determine the inhibitory effect of a 10^-5 molar concentration of the compounds, the amount of reference eicosanoids was determined and the inhibitory effect was calculated from this in % inhibition compared to the measurements of the zymosan controls.
# [2] = molecular target: T2, 5-lipoxygenase (Mus musculus, UniProt P48999); assay: 5-lipoxygenase inhibition: release of LTC4 from zymosan-stimulated mouse peritoneal macrophage cells; assay type: cell-based; conditions: 10^-5 mol/l, read-out: In vitro % inhibition effect on the release of LTC4
# T2 construct: A cell suspension containing peritoneal cells of male mice 8-10 weeks old was obtained; endogenous in cells; host or cells: mouse peritoneal macrophages (male mice 8-10 weeks old), zymosan-stimulated
# T2 sequence (P48999 1-674): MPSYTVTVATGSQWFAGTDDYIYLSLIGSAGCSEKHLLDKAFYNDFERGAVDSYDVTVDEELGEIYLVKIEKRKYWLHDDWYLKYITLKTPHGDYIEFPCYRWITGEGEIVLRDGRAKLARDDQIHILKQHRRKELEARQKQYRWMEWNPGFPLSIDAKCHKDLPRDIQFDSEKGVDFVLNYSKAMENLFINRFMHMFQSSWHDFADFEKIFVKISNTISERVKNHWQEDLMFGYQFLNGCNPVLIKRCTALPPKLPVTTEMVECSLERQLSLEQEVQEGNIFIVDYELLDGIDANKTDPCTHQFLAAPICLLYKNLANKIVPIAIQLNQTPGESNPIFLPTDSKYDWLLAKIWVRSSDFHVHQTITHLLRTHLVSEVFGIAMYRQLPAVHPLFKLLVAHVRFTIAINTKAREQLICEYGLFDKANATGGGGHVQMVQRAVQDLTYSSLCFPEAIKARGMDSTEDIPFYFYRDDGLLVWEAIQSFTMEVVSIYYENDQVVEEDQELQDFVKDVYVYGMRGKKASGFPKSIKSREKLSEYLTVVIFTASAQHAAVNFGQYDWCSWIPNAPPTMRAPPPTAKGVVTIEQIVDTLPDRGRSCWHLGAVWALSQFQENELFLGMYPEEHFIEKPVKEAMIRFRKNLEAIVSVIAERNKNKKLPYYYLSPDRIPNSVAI
# Source text: as §1, §2, §3, §4
SMILES,inhibition at 10 µM [1] [%],inhibition at 10 µM [2] [%]
Cc1cc2c3c(c1)c(CCN1CCC(C(=O)c4ccc(F)cc4)CC1)c(C)n3CCC2 [Example 55],41,45
"Cc1ccnc(N2CCN(CCc3c(CO)n4c5c(cccc35)CCC4)CC2)c1 [Example 16, 5,6-dihydro-2-hydroxymethyl-1-{2-[4-(4-methylpyridin-2-yl)piperazin-1-yl]ethyl}-4H-pyrrolo[3,2,1-ij]quinoline]",18,17
"Cc1ccnc(N2CCN(CCc3c(C)n4c5c(cc(Br)cc35)CCC4)CC2)c1 [Example 9, 8-Bromo-2-methyl-1-{2-[4-(4-methylpyridin-2-yl)piperazin-1-yl]ethyl}-5,6-dihydro-4H-pyrrolo[3,2,1-ij]quinoline]",19,62
"Cc1ccnc(N2CCN(CCc3c(-c4ccc(OCCCCO)cc4)n4c5c(cccc35)CCC4)CC2)c1 [Example 12, 2-[4-(4-Hydroxybutyloxy)-phenyl]-1-{2-[4-(4-methylpyridin-2-yl)piperazin-1-yl]ethyl}-5,6-dihydro-4H-pyrrolo[3,2,1-ij]quinoline]",53,97
"Cc1ccnc(N2CCN(CCc3c(C)n4c5c(cc(C(O)C(C)C)cc35)CCC4)CC2)c1 (stereo not shown) [Example 19, 5,6-Dihydro-8-(1-hydroxy-2-methylpropyl)-2-methyl-1-{2-[4-(4-methylpyridin-2-yl)piperazin-1-yl]ethyl}-4H-pyrrolo-[3,2,1-ij]quinoline]",5,55
"CCc1c(C(O)CN2CCN(c3cc(C)ccn3)CC2)c2cccc3c2n1CCC3 (stereo not shown) [Example 14, 2-Ethyl-5,6-dihydro-1-{2-[4-(4-methylpyridin-2-yl)piperazin-1-yl]-1-hydroxyethyl}-4H-pyrrolo[3,2,1-ij]quinoline]",25,55
Cc1c(CCN2CCN(c3ccccn3)CC2)c2cccc3c2n1CCC3 [Example 37],32,13

# The remaining lines, values ahead:
inhibition at 10 µM [1] [%],inhibition at 10 µM [2] [%],SMILES
65,98,Cc1ccnc(N2CCN(CCc3c(C)n4c5c(cccc35)CCC4c3ccc(O)cc3)CC2)c1 (stereo not shown) [Example 61]
52,71,Cc1ccnc(N2CCN(CCc3c(C)n4c5c(c(Cl)cc(Cl)c35)OCC4)CC2)c1 [Example 79]
12,39,CNc1cc2c3c(c1)c(CCN1CCN(c4cc(C)ccn4)CC1)c(C)n3CCC2 [Example 80]
36,66,CC(=O)c1cc2c3c(c1)c(CCN1CCN(c4cc(C)ccn4)CC1)c(C)n3CCC2 [Example 67]
38,98,CCCCC1CCc2cc(OC)cc3c(CCN4CCN(c5cc(C)ccn5)CC4)c(C)n1c23 (stereo not shown) [Example 63]
42,74,Cc1ccnc(N2CCN(CCc3c(C)n4c5c(cc(Cc6ccccc6)cc35)CCC4)CC2)c1 [Example 77]
43,80,COc1ccc(C2CCc3cccc4c(CCN5CCN(c6cc(C)ccn6)CC5)c(C)n2c34)cc1 (stereo not shown) [Example 59]
32,51,Cc1ccnc(N2CCN(CCc3c(C)n4c5c(c(C(O)C(C)C)ccc35)SCC4)CC2)c1 (stereo not shown) [Example 89]
56,66,Cc1ccnc(N2CCN(CCc3c(C)n4c5c(ccc(C(O)C(C)C)c35)SCC4)CC2)c1 (stereo not shown) [Example 90]
29,90,"CCCCC1CCc2cccc3c(CCN4CCN(c5cc(C)ccn5)CC4)c(C)n1c23 (stereo not shown) [Example 73, 4-n-butyl-5,6-dihydro-2-methyl-1-{2-[4-(4-methylpyridin-2-yl)piperazin-1-yl]ethyl}-4H-pyrrolo[3,2,1-ij]quinoline]"

# Source: US5324725A, “7-fused 2-(piperazinoalkyl) indole derivatives, intermediates and compositions thereof” (Kali-Chemie Pharma GmbH, priority 1991, dated 1994)
